In publication PMC10895676, “Antiviral Activity of Lipophilic Nucleoside Tetraphosphate Compounds” (Journal of Medicinal Chemistry, 2024):
Like-named read-outs stand apart in the source and are kept apart here.

Legend:
[1] = target: T1, HIV-RT (Human immunodeficiency virus type 1 group M subtype B, UniProt P03366); test: Primer extension assay using HIV-RT; assay type: biochemical; settings: 30 min, 6 U HIV-RT, 37 °C
T1 construct: HIV-RT HIV reverse transcriptase; purchased Roboklon
Description: Figure 6 Primer extension assay using HIV-RT (A), human polymerases α (B), β (C), and γ (D). (Figure 6A). Primer extension assay using HIV-RT (30 min, 6U). Lane 1: (+) dATP, dCTP, dGTP, and TTP with HIV-RT. Lane 2: (−) dATP, dCTP, dGTP, and TTP without HIV-RT. Lane 3: TTP. […] Lane 5: δ-(C4; C18)-d4T4P 4d. […] Lane 7: δ-(C18)-d4T4P 20. Lane 8: δ-C-(C18)-d4T4P 24. Lane 9: d4T4P. Lane 10: d4TTP. Lane 11: d4TDP. HIV-RT assay reaction conditions: 50 mM Tris–HCl (pH 8.6), 10 mM MgCl2, 40 mM KCl, 250 μM dNTPs, HIV-RT (6 U), 0.20 μM DNA hybrid, primer-template-hybrid 0.32 mM in a reaction volume of 10 μL, incubated at 37 °C for 0.5 h, 80 °C for 7 min. Primer extension assays: 50 mA, 45 w for 4 h. (Figure 6B). For human DNA polymerase α assay (60 min, 2 U): Lane 1: (+) dATP, dCTP, dGTP, and TTP with human polymerase α. Lane 2: (−) dATP, dCTP, dGTP, and TTP without human polymerase α. Lane 3: TTP. […] Lane 5: δ-(C4; C18)-d4T4P 4d. […] Lane 7: δ-(C18)-d4T4P 20. Lane 8: δ-C-(C18)-d4T4P 24. Lane 9: d4T4P. Lane 10: d4TTP. Human DNA polymerase α assay conditions: 60 mM Tris–HCl (pH 8), 5 mM Mg(OAc)2, 100 mM KCl, 1.0 mM dithiothreitol, 0.1 mM spermine, 0.01% (w/v) bovine serum albumin, 250 μM dNTPs, 2 U human polymerase α, 0.20 μM DNA hybrid, and primer-template-hybrid 0.32 mM in a reaction volume of 10 μL, incubated at 37 °C for 1 h, 80 °C for 7 min. Primer extension assays: 50 mA, 45 w for 3 h. (Figure 6C). For human DNA polymerase β assay (60 min, 2 U): Lane 1: (+) dATP, dCTP, dGTP, and TTP with human polymerase β. Lane 2: (−) dATP, dCTP, dGTP, and TTP without human polymerase β. Lane 3: TTP. […] Lane 5: δ-(C4; C18)-d4T4P 4d. […] Lane 7: δ-(C18)-d4T4P 20. Lane 8: δ-C-(C18)-d4T4P 24. Lane 9: d4T4P. Lane 10: d4TTP. Human DNA polymerase β assay conditions: 50 mM Tris–HCl (pH 8.7), 10 mM Mg(OAc)2, 100 mM KCl, 1.0 mM dithiothreitol, 0.1 mM spermine, 0.01% (w/v) bovine serum albumin, 15% glycerol, 250 μM dNTPs, 2 U human DNA polymerase β, 0.20 μM DNA hybrid, and primer-template-hybrid 0.32 mM in a reaction volume of 10 μL, incubated at 37 °C for 1 h, 80 °C for 7 min. Primer extension assays: 50 mA, 45 w for 3 h. (Figure 6D), For the human DNA polymerase γ assay (120 min, 2 U): Lane 1: (+) dATP, dCTP, dGTP, and TTP with human polymerase γ. Lane 2: (−) dATP, dCTP, dGTP, and TTP without human polymerase γ. Lane 3: TTP. […] Lane 5: δ-(C4; C18)-d4T4P 4d. […] Lane 7: δ-(C18)-d4T4P 20. Lane 8: δ-C-(C18)-d4T4P 24. Lane 9: d4T4P. Lane 10: d4TTP. Human polymerase γ assay conditions: 60 mM Tris–HCl (pH 8), 5 mM Mg(OAc)2, 1.0 mM dithiothreitol, 0.1 mM spermine, 0.01% (w/v) bovine serum albumin, 250 μM dNTPs, 2 U human polymerase γ, 0.5 μM MnCl2, 0.20 μM DNA hybrid, primer-template-hybrid 0.32 mM in a reaction volume of 10 μL, incubated at 37 °C for 2 h, 80 °C for 7 min. Primer extension assays: 50 mA, 45 w for 3 h.
HIV-RT and human polymerases α, β, and γ were bought from Roboklon and Chimerx. The fluorescent-labeled primer and template were obtained from Metabion.
For the annealing of the primer/template mixture, 40 μL of the 10 μM primer and 60 μL of the 10 μM template were incubated for 5 min at 95 °C. Then, for optimal annealing, the temperature was reduced over a period of 2 h to 20 °C and incubated again for 20 min at 20 °C.
For the primer extension, the reaction mixture was incubated for 30 min for the HIV-RT, 60 min for the human DNA polymerase α, and 120 min for the human DNA polymerases β and γ at 37 °C, followed by 7 min at 80 °C.

[2] = system: HIV-2 (ROD); test: Anti-HIV replication assay, HIV-2 (ROD) in thymidine kinase-deficient CEM/TK– cells; assay type: cell-based; settings: for selectivity index (SI): CC50/EC50, HIV-2 (ROD) in CEM/TK– cells; for improvement of antiviral activity as compared to the parent d4T: HIV-2, CEM/TK– cells; for EC50: read-out: CEM/TK– HIV-2 (ROD) EC50
How it was run: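 Wild-type CEM/0 or thymidine kinase-deficient CEM/TK– T-cells (~3 × 10^5 cells/mL) were infected with 100 CCID50/mL HIV-2(ROD) in the presence of compound dilutions. After 4–5 days at 37 °C, virus-induced cytopathicity and syncytium formation were scored microscopically.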

[3] = Human immunodeficiency virus 2, CEM/TK– cells, mean ± SD, n = 2–3

Structure (SMILES) | substrate for HIV-RT (primer extension) [1] | selectivity index (SI) [2] | improvement of antiviral activity as compared to the parent d4T [2] [fold] | EC50 [2, 3] [µM] | EC50 ([2]; Human immunodeficiency virus 2, CEM-TK(-)) [µM]
CCCCCCCCCCCCCCCCCCOP(=O)(OCCCC)OP(=O)(O)OP(=O)(O)OP(=O)(O)OC[C@@H]1C=C[C@H](n2cc(C)c(=O)[nH]c2=O)O1 (stereo partly shown) [4d, δ-(Alkyl-C4; alkyl-C18)-d4T4P] | good substrates | 260 | > 270 | 0.18 ± 0.15 | –
CCCCCCCCCCCCCCCCCCP(=O)(OCCCC)OP(=O)(O)OP(=O)(O)OP(=O)(O)OC[C@@H]1C=C[C@H](n2cc(C)c(=O)[nH]c2=O)O1 (stereo partly shown) [5a, δ-(Alkyl-C4)-δ-C-(alkyl-C18)-d4T4P] | good substrates | – | > 1100 | – | 0.043 ± 0.026
CCCCCCCCCCCCCCCCCCOP(=O)(O)OP(=O)(O)OP(=O)(O)OP(=O)(O)OC[C@@H]1C=C[C@H](n2cc(C)c(=O)[nH]c2=O)O1 [compound 20, δ-(Alkyl-C18)-d4T4P] | substrates | >21 | – | 4.6 ± 0.33 | –
CCCCCCCCCCCCCCCCCCP(=O)(O)OP(=O)(O)OP(=O)(O)OP(=O)(O)OC[C@@H]1C=C[C@H](n2cc(C)c(=O)[nH]c2=O)O1 [compound 24, δ-C-(Alkyl-C18)-d4T4P] | substrates | 30 | – | 1.35 ± 0.63 | –
Cc1cn([C@H]2C=C[C@@H](COP(=O)(O)OP(=O)(O)OP(=O)(O)OP(=O)(O)O)O2)c(=O)[nH]c1=O [d4T4P, 2′,3′-didehydro-2′,3′-dideoxythymidine-5′-tetraphosphate] | substrate | >3 | – | 33.8 ± 21.3 | –
